Source: PMC10974290, “Biocatalytic Synthesis of Coumarin S-Glycosides: Towards Non-Cytotoxic Probes for Biomedical Imaging and Sensing” (Molecules, 2024)

Key:
[1] = tested on: MCF-7 (breast adenocarcinoma); assay: MTT cell proliferation assay, MCF-7; format: cell-based; details: Homo sapiens, MCF7, 72 h incubation, 95% confidence interval in parentheses
Description: (§1) To use these S-glycosidic compounds in cellulo, the potential impact of the glycosidic linkage nature on the anticancer activity was assessed. The S-glycoside derivatives and the 7-MC were tested against four human cancer cell lines and a healthy one, namely A549 (lung carcinoma), HS-683 (glioma cancer), MCF-7 (breast adenocarcinoma), SK-MEL-28 (melanoma skin cancer), and HaCaT (keratinocyte normal skin), using MTT (thiazolyl blue tetrazolium bromide, Sigma-Aldrich, St. Louis, MO, USA) assay, as previously described in the literature. The selected reference drugs were 5-fluorouracil (5-FU) and etoposide.
(§2) Cell proliferation of five distinct cell lines was evaluated using the colorimetric MTT (thiazolyl blue tetrazolium bromide, Sigma) assay. Human keratinocyte normal skin HaCaT was cultivated in DMEM supplemented with 4.5 g/L glucose, 2 mM L-glutamine, and 10% FBS. Cancer cell lines and their respective growth media were obtained from CLS Cell Line Service GmbH (Eppelheim, Germany). Specifically, human skin melanoma SK-MEL-28 and human brain glioma HS683 were cultivated in DMEM with identical supplements as HaCaT cells. The human lung carcinoma cell line A-549 was grown in DMEM/Ham’s F12 (1:1) medium supplemented with 2 mM L-glutamine and 5% FBS. Additionally, human breast adenoma carcinoma MCF-7 cells were sustained in EMEM supplemented with 2 mM L-glutamine, sodium pyruvate, non-essential amino acids (NEAAs), 10 µg/mL insulin human, and 10% FBS. The MTT assay relies on the reduction of the yellow product thiazolyl blue tetrazolium bromide (MTT) to formazan, a purple-blue product, by mitochondrial dehydrogenases in metabolically active cells. The number of living cells after incubation in the presence (or absence, control) of the tested molecules is directly proportional to the blue color, which was measured by spectrophotometry. To perform the assay, cells were initially seeded at a density of 2500 cells/mL in 96-well culture plates (Nunc™ Edge 2.0, Fisher) and allowed to adhere and proliferate over a 24-hour incubation period. Following this, the cells were treated with various concentrations of the tested compounds, which were previously prepared as serial dilutions and dissolved in 0.1% DMSO. These stable solutions guarantee the consistency of experimental conditions over extended periods. Each concentration of the tested compounds underwent triplicate testing (n = 3), and cells were subsequently incubated for 72 h to allow for thorough evaluation. Following this incubation period, MTT reagent (5 mg/mL solution in PBS) was introduced to each well (10% v/v), and cells were further incubated for 4 h. Then, the culture medium was carefully removed, and the resulting blue formazan crystals were dissolved in 100 µL of 100% DMSO. Absorbance readings were taken at 540 nm, referencing a wavelength of 620 nm, using a spectrophotometer. In determining the IC50, the absorbance of serial dilutions of each cell line, treated under identical conditions but without the presence of the tested compounds, was measured.

[2] = tested on: SK-MEL-28 (melanoma skin cancer); assay: MTT cell proliferation assay, SK-MEL-28; format: cell-based; details: Homo sapiens, 72 h incubation, 95% confidence interval in parentheses
Description: as §1, §2

[3] = Fluorescence excitation/emission spectroscopy and relative quantum yield; format: physicochemical; details: 7-MC in presence of 10 mM DTT; for Fluorescence λmax ex: emission at 420 nm; for Fluorescence λmax em: excitation at 280 nm; for Relative quantum yield Φ: relative to 4-MUB in DMF
Description: The values determined were close to those observed for the 4-MUB fluorophore.
Both absorbance and fluorescence spectra were measured on a Tecan […] M PLEX 200 Pro plate reader equipped with monochromator allowing a scan from 230 to 1000 nm. […] The solutions were then transferred to a Corning (Corning, NY, USA) UV-transparent 96-well plate. Absorbance spectra were recorded from 230 to 800 nm. Emission fluorescence spectra were recorded from 320 to 800 nm, under excitation at 280 nm. Excitation fluorescence spectra were recorded from 230 to 380 nm for an emission at 420 nm. All spectra were recorded with a wavelength step size of 2 nm. Data processing was performed with Excel software 2016. Fluorescence spectra are presented as normalized spectra ranging from 0 to 1. The relative quantum yields were calculated according to Equation (1):(1) ΦT=(AR/AT)×(FT/FR)×(nT/nR)×ΦR where Φ is the fluorescence quantum yield, A is the absorbance at the excitation wavelength, F is the area under the corrected emission curve, and n is the refractive index of the solvent for the test compound (T) and the reference (R). The 4-MUB value in DMF was used as the reference. The LOD (resp. LOQ) values were determined as the minimal concentration of product S-3 required to yield a fluorescence that was twice greater than (respectively, 5-times that of) the fluorescence noise on a sample containing PBS, using an excitation wavelength of 280 nm and an emission wavelength of 386 nm (Figure S44).

IC50 [1] [mM]	IC50 [2] [mM]	Fluorescence λmax ex ([3]; DMF, 0.1 mM) [nm]	Fluorescence λmax em ([3]; DMF, 0.1 mM) [nm]	Relative quantum yield Φ ([3]; DMF)	Fluorescence λmax ex ([3]; PBS pH 7.4, 0.1 mM) [nm]	Fluorescence λmax em ([3]; PBS pH 7.4, 0.1 mM) [nm]	Relative quantum yield Φ ([3]; PBS)	Compound
> 1	0.306	334	392	0.009	321	448	0.020	Cc1cc(=O)oc2cc(S)ccc12 [Compound 7-MC, 7-mercapto-4-methylcoumarin, reference compound]
> 1	> 1	332	390	0.182	332	402	0.235	Cc1cc(=O)oc2cc(S[C@@H]3O[C@H](C(=O)O)[C@@H](O)[C@H](O)[C@H]3O)ccc12 [Compound S-1, 4-Methylumbellifer-7-yl 1-thio-β-D-glucopyranosiduronic acid]
0.128	0.228	332	386	0.186	326	402	0.181	Cc1cc(=O)oc2cc(S[C@@H]3OC[C@@H](O)[C@H](O)[C@H]3O)ccc12 [Compound S-2, 4-Methylumbellifer-7-yl 1-thio-β-D-xylopyranoside]
> 1	> 1	332	386	0.198	332	402	0.242	Cc1cc(=O)oc2cc(S[C@@H]3O[C@H](CO)[C@@H](O)[C@H](O)[C@H]3O)ccc12 [Compound S-3, 4-Methylumbellifer-7-yl 1-thio-β-D-glucopyranoside]
> 1	> 1	334	388	0.223	332	402	0.271	Cc1cc(=O)oc2cc(S[C@@H]3O[C@H](CO)[C@H](O)[C@H](O)[C@H]3O)ccc12 [Compound S-4, 4-Methylumbellifer-7-yl 1-thio-β-D-galactopyranoside]
> 1	> 1	334	386	0.183	326	402	0.228	Cc1cc(=O)oc2cc(S[C@@H]3O[C@H](C)[C@H](O)[C@H](O)[C@H]3O)ccc12 [Compound S-5, 4-Methylumbellifer-7-yl 1-thio-β-D-fucopyranoside]
> 1	> 1	334	388	0.223	332	416	0.185	Cc1cc(=O)oc2cc(S[C@H]3O[C@H](CO)[C@H](O)[C@H](O)[C@H]3O)ccc12 [Compound S-6, 4-Methylumbellifer-7-yl 1-thio-α-D-galactopyranoside]
